Row | SMILES | melting point
1 | Cc1cc(NN)ncn1 | 99 to 101 °C
2 | S=C(c1cn(-c2ccccc2)nc1-c1ccccc1)N1CCCCC1 | 124 to 126 °C
3 | COc1ccccc1Oc1ccc(C(N)=S)cc1 | 193 to 195 °C
4 | Cc1ccc(C(=O)O)cc1NC(=O)Nc1ccccc1 | 309 to 311 °C
5 | CCOC(=O)c1ncn(-c2ccc(C)cc2)c1N | 246 to 248 °C
6 | Cc1nc(-c2cccs2)c(CC(=O)O)s1 | 159 to 161 °C
7 | O=C(O)CC(Br)C(=O)c1cccs1 (stereo unspecified) | 125 to 127 °C
8 | Cc1cn(-c2ncccc2F)nc1N | 131 to 133 °C
9 | CCn1c(SCC(=O)N2c3ccccc3Sc3ccccc32)nnc1-c1ccco1 | 152 to 154 °C
10 | COc1ccccc1OCc1ccc(C(=O)O)o1 | 183 to 185 °C
11 | Cc1noc2ncc(S(=O)(=O)Cl)cc12 | 110 to 112 °C
12 | CCc1cccc2c(CC#N)c[nH]c12 | 115 to 117 °C
13 | COc1ccccc1NC(=O)NC1CCNCC1 | 83 to 85 °C
14 | Cc1ccc(C(C)C)cc1OC(C)C(=O)O (stereo unspecified) | 80 to 82 °C
15 | NC(=S)CC(=O)NCc1ccccc1 | 112 to 116 °C
16 | OC1(Cc2ccc(F)cc2F)CC2CCC(C1)N2 (stereo unspecified) | 142 to 144 °C
17 | CCNC(=O)NC(=O)CN(C)Cc1ccccc1 | 62 to 64 °C
18 | NNC(=O)c1cc(-c2ccc(Cl)cc2)nc2ccccc12 | 238 to 240 °C
19 | CC(C)(C)OC(=O)NC1CCN(C2CCNC2)CC1 (stereo unspecified) | 108 to 110 °C

Row | SMILES | melting point
20 | CN1CCC(Nc2cccc3ccccc23)CC1 | 83 to 85 °C
21 | CN(CC(N)=O)C1CCCC1 | 78 to 80 °C
22 | CCOC(=O)/C(C#N)=C\Nc1ccc(OC(F)F)cc1 | 101 to 103 °C
23 | O=C1NCCC1c1ccccc1 (stereo unspecified) | 82 to 84 °C
24 | O=C(O)/C=C/c1cccc(OCc2ccccc2)c1 | 151 to 153 °C
25 | Cc1c(C(=O)O)cnn1CCC#N | 159 to 161 °C
26 | CC(C)Cn1c(S)nnc1N1CCOCC1 | < 17 °C
27 | CCOC(=O)c1nc2ccccc2c(=O)[nH]1 | 189 to 193 °C
28 | NC(=O)C1(N)CCOCC1 | 78 to 80 °C
29 | CC(=O)c1ccc(S(=O)(=O)N2CCCCC2)cc1 | 139 to 142 °C
30 | O=C(O)CCS(=O)(=O)N1CCOCC1 | 163 to 165 °C
31 | NS(=O)(=O)c1ccc(F)c2ncccc12 | 256 to 258 °C
32 | COc1ccc2nc(C)nc(Cl)c2c1 | 119 to 121 °C
33 | O=C(O)CCOc1cccc(Cl)c1 | 85 to 87 °C
34 | Cc1n[nH]c(C)c1S(=O)(=O)N(C)Cc1ccco1 | 160 to 163 °C
35 | CN(CCO)C1(CN)CCCCC1 | 73 to 75 °C
36 | Clc1nnc(-c2ccccc2)n1C1CC1 | 159 to 161 °C
37 | N#Cc1cnc2ccccc2c1OCCO | 172 to 174 °C
38 | NNC(=O)C(=O)Nc1ccccn1 | 179 to 181 °C

Row | SMILES | melting point
39 | Nc1ccc(OCC(F)(F)F)c(C(F)(F)F)c1 | 48 to 50 °C
40 | CCS(=O)(=O)c1ccc(CN)cc1 | 51 to 53 °C
41 | Cc1noc2nc3c(cc12)CCOC3=O | 224 to 226 °C
42 | O=C(O)CC=Cc1ccccc1F | 54 to 56 °C
43 | COC(=O)c1sc2ccccc2c1S(=O)(=O)Cl | 98 to 100 °C
44 | Sc1nc2ccccc2n1-c1ccccc1 | 140 to 145 °C
45 | CC(C)NC(=O)Nc1ccc(C#N)cc1 | 193 to 195 °C
46 | O=C(O)CNC(=O)CNS(=O)(=O)Cc1ccc(F)cc1 | 198 to 200 °C
47 | O=C1NC(=O)c2cc(F)ccc21 | 183 to 185 °C
48 | Nc1ncc(Cc2ccc(Cl)c(Cl)c2)s1 | 83 to 85 °C
49 | O=C(O)Cc1coc(-c2cccs2)n1 | 185 to 187 °C
50 | Cc1cc2nc(-c3ccccc3)cc(C(=O)O)c2cc1C | 251 to 253 °C
51 | CC(Cl)C(=O)c1c[nH]c2ccccc12 (stereo unspecified) | 190 to 192 °C
52 | Nc1ccc(CCC(=O)O)cn1 | 199 to 201 °C
53 | CN1CCN(c2ccc(F)cc2N)CC1 | 126 to 128 °C
54 | CC(=O)c1cc(C(=O)C(Cl)(Cl)Cl)n(C)c1 | 133 to 135 °C
55 | CCCCCCOC(=O)c1ccc(N)cc1 | 59 to 61 °C
56 | Cc1nc2c(c(C)c1CN)c(=O)[nH]n2C | 311 to 313 °C
